Measurements from paper PMC5674802 (Molecular cell, 2017).

Target: RagA-RagC heterodimer, RagC nucleotide site (Homo sapiens, UniProt Q9HB90)
Test: UV crosslinking of radiolabelled nucleotide, SDS-PAGE autoradiography
Type: binding

RagA-RagC heterodimer, RagC nucleotide site, sequence (Q9HB90 2-399): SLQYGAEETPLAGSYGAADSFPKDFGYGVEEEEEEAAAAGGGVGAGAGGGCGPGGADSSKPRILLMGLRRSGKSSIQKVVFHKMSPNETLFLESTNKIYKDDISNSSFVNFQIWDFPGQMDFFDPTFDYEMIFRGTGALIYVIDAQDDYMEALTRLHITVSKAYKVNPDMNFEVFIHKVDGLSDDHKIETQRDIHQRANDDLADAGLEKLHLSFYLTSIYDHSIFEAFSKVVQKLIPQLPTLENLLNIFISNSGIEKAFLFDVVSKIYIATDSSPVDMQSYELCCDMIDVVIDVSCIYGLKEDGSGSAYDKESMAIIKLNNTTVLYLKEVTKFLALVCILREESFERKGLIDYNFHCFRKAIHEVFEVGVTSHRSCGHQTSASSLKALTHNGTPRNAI
RagA-RagC heterodimer, RagC nucleotide site, sequence (Q7L523 whole entry partner): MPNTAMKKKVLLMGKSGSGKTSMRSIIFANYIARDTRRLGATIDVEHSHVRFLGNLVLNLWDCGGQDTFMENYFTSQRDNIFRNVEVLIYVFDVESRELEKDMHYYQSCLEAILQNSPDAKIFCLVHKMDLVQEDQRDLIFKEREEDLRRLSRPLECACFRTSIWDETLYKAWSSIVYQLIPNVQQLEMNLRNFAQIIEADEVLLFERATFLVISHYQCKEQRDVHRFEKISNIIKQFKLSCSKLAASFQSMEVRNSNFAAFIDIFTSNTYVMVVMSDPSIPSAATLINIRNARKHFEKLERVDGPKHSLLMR

- Kd: 11 nM
SMILES: Nc1nc2c(ncn2[C@@H]2O[C@H](COP(=O)(O)OP(=O)(O)OP(=O)(O)O)[C@@H](O)[C@H]2O)c(=O)[nH]1 [GTP]
